Measurements published in ChEMBL document CHEMBL1139883, “Additional scalarane sesterterpenes from the sponge Phyllospongia papyracea” (J Nat Prod, 2007).
The source made the active and inactive calls. The calls are words filed in the database; no cut-off is given here.

Molecular target: T1, Catenin beta-1 (Homo sapiens) (UniProt P35222)
T1 sequence (whole entry): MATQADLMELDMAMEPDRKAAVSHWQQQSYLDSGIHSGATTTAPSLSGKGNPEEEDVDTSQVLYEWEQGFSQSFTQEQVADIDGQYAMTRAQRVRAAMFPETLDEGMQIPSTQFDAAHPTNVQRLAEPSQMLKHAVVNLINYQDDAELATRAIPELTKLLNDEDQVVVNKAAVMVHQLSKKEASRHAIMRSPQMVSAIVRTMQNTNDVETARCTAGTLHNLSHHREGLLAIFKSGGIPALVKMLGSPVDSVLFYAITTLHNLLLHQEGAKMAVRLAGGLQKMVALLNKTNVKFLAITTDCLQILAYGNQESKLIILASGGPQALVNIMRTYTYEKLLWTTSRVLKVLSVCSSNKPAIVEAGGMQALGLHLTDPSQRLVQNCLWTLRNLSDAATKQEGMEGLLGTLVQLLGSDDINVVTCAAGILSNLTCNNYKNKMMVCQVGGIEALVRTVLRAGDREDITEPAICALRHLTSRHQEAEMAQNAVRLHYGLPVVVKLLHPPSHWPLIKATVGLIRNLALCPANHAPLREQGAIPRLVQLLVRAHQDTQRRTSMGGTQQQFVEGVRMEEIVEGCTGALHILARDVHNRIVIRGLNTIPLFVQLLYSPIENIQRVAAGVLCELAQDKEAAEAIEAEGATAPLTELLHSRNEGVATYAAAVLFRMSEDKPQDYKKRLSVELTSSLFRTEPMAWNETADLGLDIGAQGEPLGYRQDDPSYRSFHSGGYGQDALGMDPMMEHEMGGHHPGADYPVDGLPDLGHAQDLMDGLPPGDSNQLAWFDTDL
Assay: Activity against beta […]/Tcf4 complex by PPI assay

SMILES	Activity
CC[C@@]1(C)CCC[C@]2(C)[C@H]3C[C@H](OC(C)=O)[C@]45C[C@@H](O)[C@H]4C(C(C)=O)=CC[C@H]5[C@]3(C)CC[C@@H]12	inactive
CC[C@@]1(C)CCC[C@]2(C)[C@H]3C[C@H](OC(C)=O)[C@]4(C)[C@@H](O)C(C(C)=O)=CC[C@H]4[C@]3(C)CC[C@@H]12	inactive
CC[C@@]1(C)CCC[C@]2(C)[C@H]3C[C@H](OC(C)=O)[C@]45C[C@H](O)[C@H]4C(C(C)=O)=CC[C@H]5[C@]3(C)CC[C@@H]12	inactive

The next lines start with the values.

Activity	SMILES
inactive	CC[C@@]1(C)CCC[C@]2(C)[C@H]3C[C@H](OC(C)=O)[C@@]4(C)C(=CC(=O)C5=C4C(=O)OC5(C)O)[C@]3(C)CC[C@@H]12 (some centres not stated)
inactive	CC[C@@]1(C)CCC[C@]2(C)[C@H]3C[C@H](OC(C)=O)[C@]4(C)[C@@H](C(=O)O)C(C(C)=O)=CC[C@H]4[C@]3(C)CC[C@@H]12
inactive	CCC(O)CC(=O)O[C@@H]1C[C@H]2[C@]3(C)CC[C@H]4[C@@](C)(CC)CCC[C@]4(C)[C@H]3C[C@H](OC(C)=O)[C@]2(C)[C@@H](C(=O)O)[C@@H]1C(C)=O (some centres not stated)
inactive	CC[C@@]1(C)CCC[C@]2(C)[C@H]3C[C@H](OC(C)=O)[C@]4(C)C5=C(C(=O)C[C@H]4[C@]3(C)CC[C@@H]12)C(C)OC5=O (some centres not stated)
